# Data from patent US4206215A, “Antimicrobial bis-[4-(substituted-amino)-1-pyridinium]alkanes” (Sterling Drug Inc., priority 1977, dated 1980).
# Like-named read-outs stand apart in the source and are kept apart here.
# How the values were obtained:
# K. pneum. 39645 = assay: In vitro antibacterial activity, MIC (modified Autotiter method); type: cell-based, Klebsiella pneumoniae; settings: 18-20 hours at 37° C.
# How it was run: (§1)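 Inhibitory concentrations were established by automated serial twofold dilution of the test compound, starting at 1,000 mcg./ml. in solution, into sterile water, followed by inoculated semisynthetic medium (glucose, double strength); final concentrations tested: 500 to 0.06 mcg./ml.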
# S. Aureus Smith = assay: as above; type: cell-based, Staphylococcus aureus; settings: 18-20 hours at 37° C.
# How it was run: as §1
# S. pyogen. C203 = assay: as above; type: cell-based, Streptococcus pyogenes; settings: 18-20 hours at 37° C.
# How it was run: as §1
# Ps. aerug. MGH-2 = assay: as above; type: cell-based, Pseudomonas aeruginosa; settings: 18-20 hours at 37° C.
# How it was run: as §1
# T. menta. 9129 = assay: In vitro antifungal activity, MIC (modified Autotiter method); type: cell-based, Trichophyton mentagrophytes; settings: 18-20 hours at 37° C.
# How it was run: as §1
# P. mirab. MGH-1 = assay: In vitro antibacterial activity, MIC (modified Autotiter method); type: cell-based, Proteus mirabilis; settings: 18-20 hours at 37° C.
# How it was run: as §1
# A. niger 16404 = assay: In vitro antifungal activity, MIC (modified Autotiter method); type: cell-based, Aspergillus niger; settings: 18-20 hours at 37° C.
# How it was run: as §1
# E. coli Vogel = assay: In vitro antibacterial activity, MIC (modified Autotiter method); type: cell-based, Escherichia coli; settings: 18-20 hours at 37° C.
# How it was run: as §1
# E. coli AB1932-1 = assay: as above; type: cell-based, Escherichia coli; settings: 18-20 hours at 37° C.
# How it was run: as §1
# E. coli 100/B22 = assay: as above; type: cell-based, Escherichia coli; settings: for MIC E. coli 100/B22: 18-20 hours at 37° C.
# How it was run: as §1
# C. albicans 10231 = assay: In vitro antifungal activity, MIC (modified Autotiter method); type: cell-based, Candida albicans; settings: 18-20 hours at 37° C.
# How it was run: as §1
# C. albicans Wisc. = assay: as above; type: cell-based, Candida albicans; settings: 18-20 hours at 37° C.
# How it was run: as §1
# [1] = test system: young adult male Swiss-Webster strain albino mice; assay: Acute oral toxicity (ALD50); type: in vivo
# Procedure: (§2) The acute oral toxicity (ALD50) of several representative examples was determined as follows: Groups of 3 young adult male Swiss-Webster strain albino mice were fasted approximately 4 hours before medication and then medicated once orally by stomach tube.
# [2] = Acute oral toxicity (ALD50); type: in vivo; settings: mouse, in vivo, po, mice, read-out: 7-Day ALD50
# Procedure: as §2
# E. Coli ATCC 8739 = assay: Effect of serum on bacteriostatic activity (serial tube dilution test); type: cell-based, Escherichia coli; settings: for MIC: Escherichia coli, ATCC8739
# Procedure: (§3) Antibacterial effectiveness in the presence of serum was determined for representative examples by the standard serial tube dilution test wherein paired comparisons of minimum inhibitory concentrations (MIC) were determined in the absence and in the presence of heat inactivated (30 min. at 56° C.) horse serum (40%) in the test medium. The results are expressed as the fold increase in MIC (mcg./ml.) versus Staphyloccocus aureus and Escherichia coli caused by the presence of serum and are presented in Table B hereinbelow.
# S. Aureus ATCC 6538 = assay: as above; type: cell-based, Staphyloccocus aureus; settings: for MIC: Staphylococcus aureus, ATCC6538
# Procedure: as §3
# [3] = test system: Streptococcus mutans OMZ-61; assay: Dental plaque-preventive effectiveness in the presence of sterile human saliva (50%); type: cell-based; settings: 50% sterile human saliva
# Procedure: The dental plaque preventive activity of certain of the compounds of the present invention was determined by measuring the ability of these compounds to inhibit the production of dental plaque by Streptococcus mutans OMZ-61 as follows:
# A culture medium for the plaque-producing Streptococcus mutans OMZ-61 containing 1.5 g. of BBL beef extract, 5 g. of sodium chloride, 10 g. of dehydrated trypticase, 5 g. of sucrose and sufficient distilled water to give a total volume of 1000 ml. is adjusted to pH 7.0 and sterilized by membrane filtration. The medium is dispensed aseptically in 10-ml. aliquots into 150×16 mm. test tubes and stored at refrigeration temperature until used.
# Two concentrations of the compound to be tested are prepared by dissolving 100 mg. of the compound in 1 ml. of distilled water with the aid of sufficient 0.1 N sodium hydroxide, 10% dimethylsulfoxide or 10% N,N-dimethylformamide and diluting the resulting solution to 10 ml. with distilled water. This 1.0% solution and a 1:10 dilution in distilled water (0.1%) are sterilized by membrane filtration before use.
# A sterile piece of plaque-free natural tooth enamel or synthetic hydroxylapatite is suspended in each concentration of compound for two 1-minute periods, each followed by a 1-minute air drying period. Each piece is then suspended and agitated for 5 minutes in individual test tubes containing sterile distilled water (rinse). They are then suspended in 10 ml. of liquid beef extract medium to which has been added 0.3 ml. of a 24-hr. anaerobic culture of Streptococcus mutans. The tubes containing the "treated" hydroxylapatite and the Streptococcus mutans are then incubated anaerobically at 37° C. for 24 hours. The same process of two 1-minute soaks in the solution of compound, each followed by 1 minute of air drying and the final 5-minute rinse is repeated before once again suspending the hydroxylapatite in a fresh tube containing 10 ml. of beef extract medium and 0.3 ml. of inoculum. At the end of the second 24-hour period, each piece of hydroxylapatite is rinsed for 1 minute in 3 successive tubes of distilled water. These are then suspended for 1 minute in a solution of F, D & C Red No. 3 dye. This staining procedure is used in order to identify more easily the development of plaque after the 48-hour period of exposure to the plaque-producing organism. The staining period is followed by another 10-second rinse to remove excess dye. Any plaque formation stains a brilliant pink. […] Active compounds are tested at successively lower doses in order to determine the minimum effective concentration. On some occasions, the interference of plaque production is caused by the inhibition of growth of the organism in the culture medium because the compound has been leached from the hydroxylapatite to produce an antibacterial level in the medium. When this occurs, the compound is tested at lower concentrations until the growth of the organism in the surrounding medium is equal to that in the nonmedicated control culture. Plaque may or may not be formed at these lower concentrations.
# Dental plaque-preventive effectiveness in the presence of sterile human saliva (50%) was determined for representative examples.
# [4] = 125 mg/kg oral, aqueous solution
# [5] = 250 mg/kg oral, aqueous solution
# [6] = 500 mg/kg oral, aqueous solution
# [7] = 1000 mg/kg oral, aqueous solution
# [8] = 125 mg/kg oral, suspension in 1% G.T.
# [9] = 250 mg/kg oral, suspension in 1% G.T.
# [10] = 500 mg/kg oral, suspension in 1% G.T.
# [11] = 1000 mg/kg oral, suspension in 1% G.T.
# [12] = 1250 mg/kg (so in the source) oral, suspension in 1% G.T.
compound,measurement,setting,value
CCCCCCCNc1cc[n+](CCCCCCCCCC[n+]2ccc(NCCCCCCC)cc2)cc1 [Example 27],MIC K. pneum. 39645,K. pneum. 39645,1.0 µg/mL
same,MIC S. Aureus Smith,S. Aureus Smith,0.25 µg/mL
same,MIC S. pyogen. C203,S. pyogen. C203,0.5 µg/mL
same,MIC Ps. aerug. MGH-2,Ps. aerug. MGH-2,7.8 µg/mL
same,MIC T. menta. 9129,T. menta. 9129,1.0 µg/mL
same,MIC P. mirab. MGH-1,P. mirab. MGH-1,7.8 µg/mL
same,MIC A. niger 16404,A. niger 16404,3.9 µg/mL
same,MIC E. coli Vogel,E. coli Vogel,0.5 µg/mL
same,MIC E. coli AB1932-1,E. coli AB1932-1,1.0 µg/mL
same,MIC E. coli 100/B22,E. coli 100/B22,0.5 µg/mL
same,MIC C. albicans 10231,C. albicans 10231,1.96 µg/mL
same,MIC C. albicans Wisc.,C. albicans Wisc.,1.0 µg/mL
same,Mortality 7 Days,[1]; [4],1/3
same,Mortality 24 Hrs,[1]; [4],0/3
same,Mortality 7 Days,[1]; [5],0/3
same,Mortality 24 Hrs,[1]; [5],0/3
same,Mortality 7 Days,[1]; [6],1/3
same,Mortality 24 Hrs,[1]; [6],1/3
same,Mortality 7 Days,[1]; [7],3/3
same,Mortality 24 Hrs,[1]; [7],1/3
same,LD50 at 168 h,[2]; aqueous solution,250 mg/kg
"CCCCCCCCCNc1cc[n+](CCCCCCCC[n+]2ccc(NCCCCCCCCC)cc2)cc1 [Example 29C, 1,8-bis-[4-(nonylamino)-1-pyridinium]octane dibromide]",MIC,"K. pneum. 39645; Klebsiella pneumoniae, 20 h, read-out: MIC K. pneum. 39645",1.95 µg/mL
same,MIC,"S. Aureus Smith; Staphylococcus aureus, 20 h, read-out: MIC S. Aureus Smith",1 µg/mL
same,MIC,"S. pyogen. C203; Streptococcus pyogenes, 20 h, read-out: MIC S. pyogen. C203",1.95 µg/mL
same,MIC,"Ps. aerug. MGH-2; Pseudomonas aeruginosa, 20 h, read-out: MIC Ps. aerug. MGH-2",7.8 µg/mL
same,MIC,"T. menta. 9129; Trichophyton mentagrophytes, 20 h, read-out: MIC T. menta. 9129",1.95 µg/mL
same,MIC,"P. mirab. MGH-1; Proteus mirabilis, 20 h, read-out: MIC P. mirab. MGH-1",3.9 µg/mL
same,Fold Increase in MIC E. Coli ATCC 8739,E. Coli ATCC 8739; 40% vs 0% horse serum,16 fold
same,MIC,"E. Coli ATCC 8739; 40% heat inactivated horse serum, read-out: MIC E. Coli ATCC 8739 40% Serum",62.5 µg/mL
same,MIC,E. Coli ATCC 8739; read-out: MIC E. Coli ATCC 8739 0% Serum,3.9 µg/mL
same,MIC,"A. niger 16404; Aspergillus niger, 16404, 20 h, read-out: MIC A. niger 16404",7.8 µg/mL
same,Fold Increase in MIC S. Aureus ATCC 6538,S. Aureus ATCC 6538; 40% vs 0% horse serum,16 fold
same,MIC,"S. Aureus ATCC 6538; 40% heat inactivated horse serum, read-out: MIC S. Aureus ATCC 6538 40% Serum",7.8 µg/mL
same,MIC,S. Aureus ATCC 6538; read-out: MIC S. Aureus ATCC 6538 0% Serum,0.5 µg/mL
same,MIC,"E. coli Vogel; Escherichia coli, 20 h, read-out: MIC E. coli Vogel",3.9 µg/mL
same,MIC,"E. coli AB1932-1; Escherichia coli, AB19321, 20 h, read-out: MIC E. coli AB1932-1",1.95 µg/mL
same,MIC,"E. coli 100/B22; Escherichia coli, 100/B22, 20 h, read-out: MIC E. coli 100/B22, 18-20 hours at 37° C.",1.95 µg/mL
same,MIC,"C. albicans 10231; Candida albicans, 10231, 20 h, read-out: MIC C. albicans 10231",3.9 µg/mL
same,MIC,"C. albicans Wisc.; Candida albicans, 20 h, read-out: MIC C. albicans Wisc.",3.9 µg/mL
same,Mortality 7 Days,[1]; [8],0/3
same,Mortality 24 Hrs,[1]; [8],0/3
same,Mortality 7 Days,[1]; [9],0/3
same,Mortality 24 Hrs,[1]; [9],0/3
same,Mortality 7 Days,[1]; [10],0/3
same,Mortality 24 Hrs,[1]; [10],0/3
same,Mortality 7 Days,[1]; [11],0/3
same,Mortality 24 Hrs,[1]; [11],0/3
same,LD50 at 168 h,[2]; suspension in 1% gum tragacanth,> 1000 mg/kg
"CCCCCCCNc1cc[n+](CCCCCCCCCCCC[n+]2ccc(NCCCCCCC)cc2)cc1 [Example 4, 1,12-bis-[4-(heptylamino)-1-pyridinium]dodecane dichloride]",MIC K. pneum. 39645,K. pneum. 39645,1.95 µg/mL
same,MIC S. Aureus Smith,S. Aureus Smith,0.25 µg/mL
same,MIC S. pyogen. C203,S. pyogen. C203,1.0 µg/mL
same,MIC Ps. aerug. MGH-2,Ps. aerug. MGH-2,3.9 µg/mL
same,Dental Plaque Preventive Activity in 50% saliva Minimum Effective Conc. (%),[3],Ca. 0.005%
same,MIC T. menta. 9129,T. menta. 9129,0.5 µg/mL
same,MIC P. mirab. MGH-1,P. mirab. MGH-1,1.95 µg/mL
same,MIC A. niger 16404,A. niger 16404,7.8 µg/mL
same,MIC E. coli Vogel,E. coli Vogel,0.5 µg/mL
same,MIC E. coli AB1932-1,E. coli AB1932-1,1.0 µg/mL
same,MIC E. coli 100/B22,E. coli 100/B22,0.5 µg/mL
same,MIC C. albicans 10231,C. albicans 10231,1.95 µg/mL
same,MIC C. albicans Wisc.,C. albicans Wisc.,1.95 µg/mL
same,Mortality 7 Days,[1]; [8],0/3
same,Mortality 24 Hrs,[1]; [8],0/3
same,Mortality 7 Days,[1]; [10],0/3
same,Mortality 24 Hrs,[1]; [10],0/3
same,Mortality 7 Days,[1]; [11],0/3
same,Mortality 24 Hrs,[1]; [11],0/3
same,Mortality 7 Days,[1]; [12],0/3
same,Mortality 24 Hrs,[1]; [12],0/3
same,7-Day ALD50,"[1]; oral, suspension in 1% gum tragacanth, 10080 min",> 1000 mg/kg
